Assays:
[1] = target: T1, recombinant human cathepsin K (Homo sapiens, UniProt P43235); test: in vitro inhibition of recombinant human cathepsin K; assay type: biochemical; settings: recombinant enzyme, substrate Z-Phe-Arg-AMCA, pH 7.0, 30 min preincubation, fluorescence readout
T1 sequence (P43235 115-329): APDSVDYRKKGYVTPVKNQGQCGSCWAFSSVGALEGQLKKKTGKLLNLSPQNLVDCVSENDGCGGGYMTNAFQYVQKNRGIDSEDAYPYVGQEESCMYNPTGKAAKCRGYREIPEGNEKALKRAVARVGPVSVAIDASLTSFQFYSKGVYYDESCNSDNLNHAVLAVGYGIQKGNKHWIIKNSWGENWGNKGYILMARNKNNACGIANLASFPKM
Method: The in vitro assay is carried out as follows:
The assay is performed in 96 well microtiter plates at ambient temperature using recombinant human cathepsin K. Inhibition of cathepsin K is assayed at a constant enzyme (0.16 nM) and substrate concentration ([…] Z-Phe-Arg-AMCA—Peptide Institute Inc. Osaka, Japan) in 100 mM sodium phosphate buffer, pH 7.0, containing 2 mM dithiothreitol, 20 mM Tween 80 and 1 mM EDTA. Cathepsin K is preincubated with the inhibitors for 30 min, and the reaction is initiated by the addition of substrate. After 30 min incubation the reaction is stopped by the addition of E-64 (2 mM), and fluorescence intensity is read on a multi-well plate reader at excitation and emission wavelengths of 360 and 460 nm, respectively.

[2] = target: recombinant human cathepsin S (Homo sapiens, UniProt P25774); test: in vitro inhibition of recombinant human cathepsin S; assay type: biochemical; settings: recombinant enzyme 0.04 nM, substrate Z-Leu-Leu-4-methylcoumaryl-7-amide, pH 7.0, fluorescence readout
Sequence of recombinant human cathepsin S (P25774 115-331): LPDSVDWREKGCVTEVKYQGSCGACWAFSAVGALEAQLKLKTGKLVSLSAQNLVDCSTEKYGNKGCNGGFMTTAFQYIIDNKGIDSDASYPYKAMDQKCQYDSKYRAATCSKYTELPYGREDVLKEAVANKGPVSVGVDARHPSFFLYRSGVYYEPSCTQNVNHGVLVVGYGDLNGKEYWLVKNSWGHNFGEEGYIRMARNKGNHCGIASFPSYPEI
Method: The in vitro assay is carried out in clear, flat-bottomed, 96-well microtiter plates (Greiner GmbH, Germany) at ambient temperature using recombinant human cathepsin S. Inhibition of human cathepsin S is assayed at a constant enzyme and various substrate concentrations (substrate is Z-Leu-Leu-4-methylcoumaryl-7-amide (Bachem (Switzerland)) in 100 parts 0.2M sodium phosphate, pH 7.0, containing 2 mM EDTA, 2 parts 1% Triton X-100, 10 parts 20 mM dithiothreitol (DTT) and 58 parts distilled water. The assay is started by adding the enzyme solution (13 times higher concentration of final concentration of recombinant human Cathepsin S) to the reaction mixture containing various concentrations of the corresponding substrate and the compound. Substrate concentrations between 3.4 and 17 μM are used. The recombinant human Cathepsin S is used at a final concentration of 0.04 nM. Test compounds are used at concentrations between 0.4 and 2 times the determined IC50 of the compound at the enzyme. The relative fluorescence is continuously measured for 30 minutes and the initial velocity is obtained from each progress curve. […]

Row | IC50 [1] [nM] | IC50 [2] [nM] | SMILES
1 | ~0.16 |  | CC(C)(C)Cn1c(CN2C(=O)CC3(CCNCC3)C2=O)cc2cnc(C#N)nc21 [Example 3-0, 7-(2,2-Dimethyl-propyl)-6-(1,3-dioxo-2,8-diaza-spiro[4.5]dec-2-ylmethyl)-7H-pyrrolo[2,3-d]pyrimidine-2-carbonitrile]
2 | 8 | 6 | CC(C)(C)CCn1c(CN2CCC3(CCN(S(C)(=O)=O)CC3)C2)cc2cnc(C#N)nc21 [Example 4-3]
3 |  | ~9 | CC(=O)N1CCC2(CC1)C(=O)N(Cc1cc3cnc(C#N)nc3n1CCC1CCCCC1)c1ccccc12 [Example 4-8]
4 | 16 | 10 | CC(=O)N1CCC2(CC1)C(=O)N(Cc1cc3cnc(C#N)nc3n1CCC(C)(C)C)c1ccccc12 [Example 4-9]
